Source: publication PMC8197855, “Peptide/β-Peptoid Hybrids with Activity against Vancomycin-Resistant Enterococci: Influence of Hydrophobicity and Structural Features on Antibacterial and Hemolytic Properties” (International Journal of Molecular Sciences, 2021)
Converted amounts (≈) assume the structure as drawn.

Columns and labels:
E. faecium ATCC 19434 [1] = assay: microbe, parasite or virus in culture; assay type: cell-based, Enterococcus faecium; conditions: ATCC 19434, 24 h
Hemolytic activity = assay type: cell-based, human; conditions: human, human red blood cells (washed, 1% suspension), 37 °C, 1% red blood cell suspension
Procedure, shortened: (§1)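 Washed cells (1% suspension) incubated with compound at final 400 μg/mL, 60 min at 37 °C with mild agitation, triplicate wells. Released hemoglobin read at OD405 in supernatant; percent hemolysis normalised to 1% SDS (100%) and PBS (0%).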

[2] = system: E. faecium and E. faecalis isolates; assay: MIC summarised over all isolates; assay type: cell-based, Enterococcus faecium and Enterococcus faecalis; conditions: summary over all isolates
Method: (§2) Overnight cultures of the enterococcal isolates were diluted in physiological saline (0.9% NaCl) to reach a turbidity of 0.5 McFarland units (Sensititre® nephelometer and the Sensititre® McFarland Standard). Bacterial suspensions were adjusted to 5 × 10^5 CFU/mL in MHB II or BHI broth containing two-fold dilutions of peptidomimetics or conventional antibiotics in a final volume of 100 µL. The plates were incubated for 24 h at 37 °C without shaking. […] All experiments were performed in three biological replicates.

E. faecium (MV388) [3] = assay type: cell-based, Enterococcus faecium; conditions: MV388, 24 h
Method: The minimum bactericidal concentration (MBC) is defined as the lowest concentration of the peptidomimetics that kills 99.9% of the bacterial population. All experiments were performed in three biological replicates.

E. faecium (MV388) [4] = assay: Membrane integrity, propidium iodide uptake by flow cytometry; assay type: cell-based, Enterococcus faecium; conditions: peptidomimetics at MBC, nisin at MIC; 5 min
Method: (§3) Membrane integrity was assessed by using a propidium iodide (PI) uptake assay, as previously described. In brief, 2 μL of stationary enterococcal cultures were transferred to Falcon round-bottom tubes (14 mL; Corning), each containing 2 mL fresh BHI medium. Cultures were grown to an OD600 of 0.2 at 37 °C with shaking (180 rpm). […] Then, 15 μL of culture was transferred into 980 μL filtered phosphate-buffered saline, and then stained for 5 min with 5 μL of 0.1 mg/mL PI. After staining, the red fluorescence levels (FL3 channel) in cells were recorded by using a BD Biosciences Accuri C6 flow cytometer (Becton Dickinson). The settings of the flow cytometer were as follows: 25,000 recorded events at an FSC threshold of 15,000, and medium flow rate. The gating of the stained cell population and analysis of flow cytometry data were performed in CFlow (BD Accuri). The assessment of membrane integrity was performed in three biological replicates for each condition.

E. faecalis (MV269) = assay: as above; assay type: cell-based, Enterococcus faecalis; conditions: peptidomimetics at MBC, nisin at MIC; 5 min
Method: as §3

human red blood cells = assay: Hemolytic activity; assay type: cell-based; conditions: 60 min, 37 °C, 1% red blood cell suspension
Procedure, shortened: as §1

E. faecalis isolates = assay type: cell-based, Enterococcus faecalis; conditions: 24 h
Method: as §2

E. faecium isolates = assay type: cell-based, Enterococcus faecium; conditions: 24 h
Method: as §2

E. faecium ATCC 19434 [5] = assay: Broth checkerboard assay with conventional antibiotics; assay type: cell-based, Enterococcus faecium
Method: The strain culture preparation and final volume were the same as in the MIC assay. […] The plates were incubated for 24 h at 37 °C without shaking. […] All experiments were performed in two biological replicates.
To evaluate the effect of the combinations, the fractional inhibitory concentration index (FICI) was calculated for each combination according to:ΣFIC = FICA + FICB = (CA/MICA) + (CB/MICB)
The drug interaction was scored as follows: synergy—FICI ≤ 0.5; no interaction—FICI > 0.5–4; antagonism—FICI > 4 [40].

Structure (SMILES)	Minimum inhibitory concentration (E. faecium ATCC 19434 [1]) [µg/mL]	hemolysis at 60 min, 400 µg/mL (Hemolytic activity) [%]	MIC (range) against all E. faecium and E. faecalis isolates [2] [µg/mL]	Minimum bactericidal concentration (E. faecium (MV388) [3]) [µg/mL]	Propidium iodide (PI) uptake, membrane integrity (E. faecium (MV388) [4])	Propidium iodide (PI) uptake, membrane integrity (E. faecalis (MV269))	Hemolysis (at 400 µg/mL) (human red blood cells) [%]	MIC (range) against E. faecalis (E. faecalis isolates) [µg/mL]	MIC (range or typical value) against E. faecium (E. faecium isolates) [µg/mL]	Effect on the MIC of rifampicin (E. faecium ATCC 19434 [5]; compound supplemented at 0.25× MIC)	Reduction in the MIC of rifampicin (E. faecium ATCC 19434 [5]; compound supplemented at 0.5× MIC)
CC(=O)N[C@@H](CCCCNC(=N)N)C(=O)N(CCC(=O)N[C@@H](CCCCNC(=N)N)C(=O)N(CCC(=O)N[C@@H](CCCCNC(=N)N)C(=O)N(CCC(=O)N[C@@H](CCCCNC(=N)N)C(=O)N(CCC(=O)N[C@@H](CCCCNC(=N)N)C(=O)N(CCC(=O)N[C@@H](CCCCNC(=N)N)C(=O)N(CCC(N)=O)[C@@H](C)C1CCCCC1)[C@@H](C)C1CCCCC1)[C@@H](C)C1CCCCC1)[C@@H](C)C1CCCCC1)[C@@H](C)C1CCCCC1)[C@@H](C)C1CCCCC1 [Compound 2, Ac-[hArg-βNsce]6-NH2]	2 (≈ 0.922 µM)	98.4	2 to 4	4 to 8	significant accumulation of PI	significant accumulation of PI	–	–	–	–	–
CC(=O)N[C@@H](CCCCNC(=N)N)C(=O)N(CCC(=O)N[C@@H](CCCCN)C(=O)N(CCC(=O)N[C@@H](CCCCNC(=N)N)C(=O)N(CCC(=O)N[C@@H](CCCCN)C(=O)N(CCC(=O)N[C@@H](CCCCNC(=N)N)C(=O)N(CCC(=O)N[C@@H](CCCCN)C(=O)N(CCC(N)=O)[C@@H](C)c1ccccc1)[C@@H](C)C1CCCCC1)[C@@H](C)c1ccccc1)[C@@H](C)C1CCCCC1)[C@@H](C)c1ccccc1)[C@@H](C)C1CCCCC1 [Compound 5, Ac-[hArg-βNsce-Lys-βNspe]3-NH2]	4 (≈ 1.98 µM)	< 10	–	128 (≈ 63.2 µM)	less perturbation of membrane integrity	less perturbation of membrane integrity	9.4	4 to 16	–	–	–
CCCCCCCC(=O)N[C@@H](CCCCN)C(=O)N(CCC(=O)N[C@@H](CCCCN)C(=O)N(CCC(=O)N[C@@H](CCCCN)C(=O)N(CCC(=O)N[C@@H](CCCCN)C(=O)N(CCC(=O)N[C@@H](CCCCN)C(=O)N(CCC(=O)N[C@@H](CCCCN)C(=O)N(CCC(N)=O)[C@@H](C)c1ccccc1)[C@@H](C)c1ccccc1)[C@@H](C)c1ccccc1)[C@@H](C)c1ccccc1)[C@@H](C)c1ccccc1)[C@@H](C)c1ccccc1 [Compound 10, Oct-[Lys-βNspe]6-NH2]	8 (≈ 4.07 µM)	< 10	–	16 (≈ 8.15 µM)	less perturbation of membrane integrity	less perturbation of membrane integrity	6.9	4 to 16	2 to 8	no effect	4–8 fold
